# Reference: ChEMBL document CHEMBL4041509, “Structure-activity relationship study of novel 2-aminobenzofuran derivatives as P-glycoprotein inhibitors” (Eur J Med Chem, 2017)
# Active and inactive are the calls of the source. No cut-off for these calls is given here.
# Columns and labels:
# [1] = target: T1, ATP-dependent translocase ABCB1 (Homo sapiens, UniProt P08183); test: Inhibition of ABCB1 (unknown origin) expressed in Flp-In-293 cells assessed as increase in calcein-AM uptake at 5 uM preincubated for 30 mins followed by calcein-AM addition measured after 30 mins by fluorescence spectrometric method relative to control; type: cell-based; details: 0.5 h
# HEK293 [2] = test: Effect on ABCB1 mRNA expression in human Flp-In-293 cells at 5 uM after 72 hrs by qRT-PCR method; type: functional, cell-based
# HEK293 [3] = test: Potentiation of paclitaxel-induced cytotoxicity against human Flp-In-293 cells at 1 uM by SRB assay relative to control; type: functional
# HeLa S3 = test: Cytotoxicity against human HeLaS3 assessed as reduction in cell viability by SRB assay; type: cell-based
# [4] = target: T1, ATP-dependent translocase ABCB1; test: Inhibition of ABCB1 (unknown origin) expressed in human Flp-In-293 cells assessed as potentiation of paclitaxel-induced cytotoxicity by SRB assay; type: cell-based
# [5] = target: T1, ATP-dependent translocase ABCB1; test: Potency index, ratio of compound effect to verapamil effect for inhibition of ABCB1 (unknown origin) expressed in Flp-In-293 cells assessed as increase in calcein-AM uptake at 5 uM preincubated for 30 mins followed by calcein-AM addition measured after 30 mins by fluorescence spectrometric method; type: cell-based; details: 0.5 h
# [6] = target: T1, ATP-dependent translocase ABCB1; test: Inhibition of ABCB1 (unknown origin) expressed in human Flp-In-293 cells assessed as potentiation of vincristine-induced cytotoxicity by SRB assay; type: cell-based
# [7] = target: T1, ATP-dependent translocase ABCB1; test: Inhibition of ABCB1 (unknown origin) expressed in human Flp-In-293 cells assessed as potentiation of vincristine-induced cytotoxicity at 2.5 uM by SRB assay relative to control; type: cell-based
# Homo sapiens [8] = species: Homo sapiens; test: Inhibition of P-gp in human HeLaS3 cells assessed as potentiation of doxorubicin-induced cytotoxicity at 2.5 uM by SRB assay relative to control; type: cell-based
# Homo sapiens [9] = species: Homo sapiens; test: Inhibition of P-gp in human HeLaS3 cells assessed as potentiation of doxorubicin-induced cytotoxicity at 1 uM by SRB assay relative to control; type: cell-based
# Homo sapiens [10] = species: Homo sapiens; test: Inhibition of P-gp in human KBVIN cells assessed as potentiation of vincristine-induced cytotoxicity at 1 uM by SRB assay relative to control; type: cell-based
# HEK293 [11] = test: Potentiation of doxorubicin-induced cytotoxicity against human Flp-In-293 cells at 1 uM by SRB assay relative to control; type: functional
# [12] = target: T1, ATP-dependent translocase ABCB1; test: Inhibition of ABCB1 (unknown origin) expressed in Flp-In-293 cells assessed as increase in calcein-AM uptake at 10 uM preincubated for 30 mins followed by calcein-AM addition measured after 30 mins by fluorescence spectrometric method relative to control; type: cell-based; details: 0.5 h
# Homo sapiens [13] = species: Homo sapiens; test: Inhibition of P-gp in human KBVIN cells assessed as potentiation of vincristine-induced cytotoxicity by SRB assay; type: cell-based
# Homo sapiens [14] = species: Homo sapiens; test: Inhibition of P-gp in human HeLaS3 cells assessed as potentiation of vincristine-induced cytotoxicity at 2.5 uM by SRB assay relative to control; type: cell-based
# Homo sapiens [15] = species: Homo sapiens; test: Inhibition of P-gp in human HeLaS3 cells assessed as potentiation of doxorubicin-induced cytotoxicity by SRB assay; type: cell-based
# HEK293 [16] = test: Potentiation of paclitaxel-induced cytotoxicity against human Flp-In-293 cells at 2.5 uM by SRB assay relative to control; type: functional
# Homo sapiens [17] = species: Homo sapiens; test: Inhibition of P-gp in human HeLaS3 cells assessed as potentiation of paclitaxel-induced cytotoxicity at 1 uM by SRB assay relative to control; type: cell-based
# HEK293 [18] = test: Effect on ABCB1 mRNA expression in human Flp-In-293 cells expressing ABCB1 at 5 uM after 72 hrs by qRT-PCR method; type: functional, cell-based
# Homo sapiens [19] = species: Homo sapiens; test: Inhibition of P-gp in human HeLaS3 cells assessed as potentiation of paclitaxel-induced cytotoxicity by SRB assay; type: cell-based
# Homo sapiens [20] = species: Homo sapiens; test: Inhibition of P-gp in human KBVIN cells assessed as potentiation of paclitaxel-induced cytotoxicity by SRB assay; type: cell-based
# [21] = target: T1, ATP-dependent translocase ABCB1; test: Inhibition of ABCB1 (unknown origin) expressed in human Flp-In-293 cells assessed as potentiation of paclitaxel-induced cytotoxicity at 1 uM by SRB assay relative to control; type: cell-based
# HEK293 [22] = test: Potentiation of doxorubicin-induced cytotoxicity against human Flp-In-293 cells at 2.5 uM by SRB assay relative to control; type: functional
# [23] = target: T1, ATP-dependent translocase ABCB1; test: Inhibition of ABCB1 (unknown origin) expressed in human Flp-In-293 cells assessed as potentiation of doxorubicin-induced cytotoxicity at 2.5 uM by SRB assay relative to control; type: cell-based
# [24] = target: T1, ATP-dependent translocase ABCB1; test: Inhibition of ABCB1 (unknown origin) expressed in human Flp-In-293 cells assessed as potentiation of doxorubicin-induced cytotoxicity by SRB assay; type: cell-based
# HEK293 [25] = test: Cytotoxicity against human Flp-In-293 cells expressing MDR1 assessed as reduction in cell viability by SRB assay; type: ADME, cell-based
# Homo sapiens [26] = species: Homo sapiens; test: Inhibition of P-gp in human KBVIN cells assessed as potentiation of doxorubicin-induced cytotoxicity at 2.5 uM by SRB assay relative to control; type: cell-based
# [27] = Cytotoxicity against human KBVIN assessed as reduction in cell viability by SRB assay; type: cell-based
# Homo sapiens [28] = species: Homo sapiens; test: Inhibition of P-gp in human HeLaS3 cells assessed as potentiation of vincristine-induced cytotoxicity by SRB assay; type: cell-based
# [29] = target: T1, ATP-dependent translocase ABCB1; test: Inhibition of ABCB1 (unknown origin) expressed in human Flp-In-293 cells assessed as potentiation of vincristine-induced cytotoxicity at 1 uM by SRB assay relative to control; type: cell-based
# Homo sapiens [30] = species: Homo sapiens; test: Inhibition of P-gp in human HeLaS3 cells assessed as potentiation of paclitaxel-induced cytotoxicity at 2.5 uM by SRB assay relative to control; type: cell-based
# HEK293 [31] = test: Potentiation of vincristine-induced cytotoxicity against human Flp-In-293 cells at 1 uM by SRB assay relative to control; type: functional
# HEK293 [32] = test: Cytotoxicity against human Flp-In-293 cells assessed as reduction in cell viability by SRB assay; type: cell-based
# Homo sapiens [33] = species: Homo sapiens; test: Inhibition of P-gp in human KBVIN cells assessed as potentiation of doxorubicin-induced cytotoxicity by SRB assay; type: cell-based
# Homo sapiens [34] = species: Homo sapiens; test: Inhibition of P-gp in human HeLaS3 cells assessed as potentiation of vincristine-induced cytotoxicity at 1 uM by SRB assay relative to control; type: cell-based
# [35] = target: T1, ATP-dependent translocase ABCB1; test: Inhibition of ABCB1 (unknown origin) expressed in human Flp-In-293 cells assessed as potentiation of doxorubicin-induced cytotoxicity at 1 uM by SRB assay relative to control; type: cell-based
# Homo sapiens [36] = species: Homo sapiens; test: Inhibition of P-gp in human KBVIN cells assessed as potentiation of doxorubicin-induced cytotoxicity at 1 uM by SRB assay relative to control; type: cell-based
# Homo sapiens [37] = species: Homo sapiens; test: Inhibition of P-gp in human KBVIN cells assessed as potentiation of paclitaxel-induced cytotoxicity at 1 uM by SRB assay relative to control; type: cell-based
# Homo sapiens [38] = species: Homo sapiens; test: Inhibition of P-gp in human KBVIN cells assessed as potentiation of paclitaxel-induced cytotoxicity at 2.5 uM by SRB assay relative to control; type: cell-based
# Homo sapiens [39] = species: Homo sapiens; test: Inhibition of P-gp in human KBVIN cells assessed as potentiation of vincristine-induced cytotoxicity at 2.5 uM by SRB assay relative to control; type: cell-based
# HEK293 [40] = test: Potentiation of vincristine-induced cytotoxicity against human Flp-In-293 cells at 2.5 uM by SRB assay relative to control; type: functional
# [41] = target: T1, ATP-dependent translocase ABCB1; test: Inhibition of ABCB1 (unknown origin) expressed in human Flp-In-293 cells assessed as potentiation of paclitaxel-induced cytotoxicity at 2.5 uM by SRB assay relative to control; type: cell-based
# T1 sequence (P08183 whole entry): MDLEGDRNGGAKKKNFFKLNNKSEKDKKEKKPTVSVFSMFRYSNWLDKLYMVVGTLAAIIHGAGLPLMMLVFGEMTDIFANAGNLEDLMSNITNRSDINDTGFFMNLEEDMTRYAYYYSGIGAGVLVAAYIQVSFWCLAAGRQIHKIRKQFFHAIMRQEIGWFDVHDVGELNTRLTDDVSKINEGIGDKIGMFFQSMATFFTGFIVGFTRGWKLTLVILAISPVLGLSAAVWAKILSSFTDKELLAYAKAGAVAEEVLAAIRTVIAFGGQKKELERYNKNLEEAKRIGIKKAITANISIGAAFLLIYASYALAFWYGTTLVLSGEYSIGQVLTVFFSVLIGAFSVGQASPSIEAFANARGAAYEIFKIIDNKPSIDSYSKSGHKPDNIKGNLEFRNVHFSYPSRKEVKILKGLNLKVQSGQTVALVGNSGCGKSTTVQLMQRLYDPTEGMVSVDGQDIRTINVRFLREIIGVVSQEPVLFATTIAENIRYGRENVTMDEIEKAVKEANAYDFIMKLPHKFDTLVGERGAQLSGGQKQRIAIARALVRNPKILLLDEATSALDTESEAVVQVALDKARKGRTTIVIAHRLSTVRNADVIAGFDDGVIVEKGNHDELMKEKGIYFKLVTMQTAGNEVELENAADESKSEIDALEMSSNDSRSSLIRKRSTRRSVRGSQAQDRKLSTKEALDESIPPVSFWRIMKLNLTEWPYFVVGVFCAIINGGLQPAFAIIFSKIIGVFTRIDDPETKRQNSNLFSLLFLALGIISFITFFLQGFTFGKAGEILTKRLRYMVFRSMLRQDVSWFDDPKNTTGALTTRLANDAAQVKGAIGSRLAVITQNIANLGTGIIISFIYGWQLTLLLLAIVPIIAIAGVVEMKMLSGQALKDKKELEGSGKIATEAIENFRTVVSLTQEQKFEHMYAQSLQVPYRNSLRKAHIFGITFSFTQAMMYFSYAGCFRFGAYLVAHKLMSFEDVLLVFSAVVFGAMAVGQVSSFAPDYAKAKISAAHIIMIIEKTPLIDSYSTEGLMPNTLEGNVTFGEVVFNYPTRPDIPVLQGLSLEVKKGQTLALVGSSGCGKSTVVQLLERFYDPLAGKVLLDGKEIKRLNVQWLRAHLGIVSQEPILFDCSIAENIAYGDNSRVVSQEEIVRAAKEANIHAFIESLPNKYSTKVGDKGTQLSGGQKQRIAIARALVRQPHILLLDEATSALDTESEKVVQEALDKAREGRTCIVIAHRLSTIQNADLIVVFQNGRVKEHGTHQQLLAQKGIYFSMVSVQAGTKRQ
smiles,measurement,setting,value
CCN(CC)CCOc1cc(-c2ccc(OC)c(OC)c2)cc2oc(N)c(-c3cccs3)c12,fold change (FC),[1],11.12
same,Activity,HEK293 [2],inactive
same,fold change (FC),HEK293 [3],1.35
same,IC50,HeLa S3,21.5 µM
same,inhibition (INH),[4],Dose-dependent effect
same,Ratio,[5],3.6
same,inhibition (INH),[6],Dose-dependent effect
same,fold change (FC),[7],17.95
same,fold change (FC),Homo sapiens [8],0.93
same,fold change (FC),Homo sapiens [9],0.8
same,fold change (FC),Homo sapiens [10],240
same,fold change (FC),HEK293 [11],1.03
same,fold change (FC),[12],11.34
same,inhibition,Homo sapiens [13],Dose-dependent effect
same,fold change (FC),Homo sapiens [14],1.21
same,inhibition,Homo sapiens [15],Dose-dependent effect
same,fold change (FC),HEK293 [16],1.47
same,fold change (FC),Homo sapiens [17],5.49
same,Activity,HEK293 [18],inactive
same,inhibition,Homo sapiens [19],Dose-dependent effect
same,inhibition,Homo sapiens [20],Dose-dependent effect
same,fold change (FC),[21],2.49
same,fold change (FC),HEK293 [22],1.09
same,fold change (FC),[23],26.43
same,inhibition (INH),[24],Dose-dependent effect
same,IC50,HEK293 [25],31.2 µM
same,fold change (FC),Homo sapiens [26],5.16
same,IC50,[27],18.5 µM
same,inhibition,Homo sapiens [28],Dose-dependent effect
same,fold change (FC),[29],3.37
same,fold change (FC),Homo sapiens [30],3.85
same,fold change (FC),HEK293 [31],7.01
same,IC50,HEK293 [32],34.9 µM
same,inhibition,Homo sapiens [33],Dose-dependent effect
same,fold change (FC),Homo sapiens [34],1.23
same,fold change (FC),[35],3.17
same,fold change (FC),Homo sapiens [36],1.39
same,fold change (FC),Homo sapiens [37],5.11
same,fold change (FC),Homo sapiens [38],38.7
same,fold change (FC),Homo sapiens [39],246
same,fold change (FC),HEK293 [40],8.57
same,fold change (FC),[41],13.68
COc1ccc(-c2cc(OCCN3CCCC3)c3c(-c4cccs4)c(N)oc3c2)cc1OC,fold change (FC),[1],8.52
same,Activity,HEK293 [2],inactive
same,fold change (FC),HEK293 [3],0.92
same,IC50,HeLa S3,38 µM
same,inhibition (INH),[4],Dose-dependent effect
same,inhibition (INH),[6],Dose-dependent effect
same,fold change (FC),[7],5.92
same,fold change (FC),Homo sapiens [8],2.71
same,fold change (FC),Homo sapiens [9],0.9
same,fold change (FC),Homo sapiens [10],25.7
same,fold change (FC),HEK293 [11],0.91
same,fold change (FC),[12],9.12
same,inhibition,Homo sapiens [13],Dose-dependent effect
same,fold change (FC),Homo sapiens [14],1.08
same,inhibition,Homo sapiens [15],Dose-dependent effect
same,fold change (FC),HEK293 [16],1.38
same,fold change (FC),Homo sapiens [17],3.8
same,Activity,HEK293 [18],inactive
same,inhibition,Homo sapiens [19],Dose-dependent effect
same,inhibition,Homo sapiens [20],Dose-dependent effect
same,fold change (FC),[21],1.23
same,fold change (FC),HEK293 [22],0.96
same,fold change (FC),[23],3.95
same,inhibition (INH),[24],Dose-dependent effect
same,IC50,HEK293 [25],37 µM
same,fold change (FC),Homo sapiens [26],1.88
same,IC50,[27],36.3 µM
same,inhibition,Homo sapiens [28],Dose-dependent effect
same,fold change (FC),[29],1.69
same,fold change (FC),Homo sapiens [30],3.97
same,fold change (FC),HEK293 [31],4.25
same,IC50,HEK293 [32],36.5 µM
same,inhibition,Homo sapiens [33],Dose-dependent effect
same,fold change (FC),Homo sapiens [34],1.17
same,fold change (FC),[35],2.78
same,fold change (FC),Homo sapiens [36],1.51
same,fold change (FC),Homo sapiens [37],2.55
same,fold change (FC),Homo sapiens [38],9.27
same,fold change (FC),Homo sapiens [39],34.2
same,fold change (FC),HEK293 [40],8.36
same,fold change (FC),[41],2.65
